Assay [1] is described as follows: blockers of HIV-1 envelope-mediated cell-cell fusion – cherry-pick, dose response (AID 652057). Format: functional, cell-based.
Assay [2] can be described thus: viability loss in CEM21 cells – cell-based, CellTiter-Glo luminescence, cherry-picked, cytotoxicity control for viral fusion inhibitor project, dose response (AID 652042).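 Further: potency for signal decrease meaning cytotoxicity.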 In kind it is functional.
Assay [3] is described as follows: off-target signal loss in HeLa-CEM21 co-culture – HeLa F-luc CTL cells, cherry-picked, counter-screen for HIV-1 Env fusion inhibitor project, dose response (AID 652040).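 Further: potency for signal decrease marking cytotoxic or nonspecific inhibition.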 Format: functional, cell-based. On the technique in general: The purpose of a counterscreen is to sort out artefacts and off-target activity.
In assay [4] the target is Photoreceptor-specific nuclear receptor (Homo sapiens, UniProt Q9Y5X4). In kind it is functional, cell-based.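 Further: CHO-S cells with Gal4-NCOR and VP16-NR2E3 two-hybrid luciferase reporter.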
Chain of Photoreceptor-specific nuclear receptor (Q9Y5X4 whole entry, the tested form may be a part): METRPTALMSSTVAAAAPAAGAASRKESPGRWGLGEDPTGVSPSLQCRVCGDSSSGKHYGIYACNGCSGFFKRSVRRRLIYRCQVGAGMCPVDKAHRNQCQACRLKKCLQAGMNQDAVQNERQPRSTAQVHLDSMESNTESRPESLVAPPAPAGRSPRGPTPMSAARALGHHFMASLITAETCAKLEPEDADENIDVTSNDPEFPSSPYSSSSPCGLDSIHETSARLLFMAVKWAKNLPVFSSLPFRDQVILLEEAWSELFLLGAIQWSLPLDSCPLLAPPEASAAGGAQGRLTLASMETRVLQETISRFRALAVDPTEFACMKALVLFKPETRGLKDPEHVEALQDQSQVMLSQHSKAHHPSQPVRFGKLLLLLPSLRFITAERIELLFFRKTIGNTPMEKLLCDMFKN
In assay [5] the target is SWI/SNF-related matrix-associated actin-dependent regulator of chromatin subfamily A member 2 (Homo sapiens, UniProt P51531). As to the kind of experiment: Luminescence-based cell-based high throughput dose response assay to identify activators of the function of SWI/SNF related, matrix associated, actin dependent regulator of chromatin, subfamily a, member 2 (SMARCA2, BRM). In kind it is functional.
Chain of SWI/SNF-related matrix-associated actin-dependent regulator of chromatin subfamily A member 2 (P51531 whole entry): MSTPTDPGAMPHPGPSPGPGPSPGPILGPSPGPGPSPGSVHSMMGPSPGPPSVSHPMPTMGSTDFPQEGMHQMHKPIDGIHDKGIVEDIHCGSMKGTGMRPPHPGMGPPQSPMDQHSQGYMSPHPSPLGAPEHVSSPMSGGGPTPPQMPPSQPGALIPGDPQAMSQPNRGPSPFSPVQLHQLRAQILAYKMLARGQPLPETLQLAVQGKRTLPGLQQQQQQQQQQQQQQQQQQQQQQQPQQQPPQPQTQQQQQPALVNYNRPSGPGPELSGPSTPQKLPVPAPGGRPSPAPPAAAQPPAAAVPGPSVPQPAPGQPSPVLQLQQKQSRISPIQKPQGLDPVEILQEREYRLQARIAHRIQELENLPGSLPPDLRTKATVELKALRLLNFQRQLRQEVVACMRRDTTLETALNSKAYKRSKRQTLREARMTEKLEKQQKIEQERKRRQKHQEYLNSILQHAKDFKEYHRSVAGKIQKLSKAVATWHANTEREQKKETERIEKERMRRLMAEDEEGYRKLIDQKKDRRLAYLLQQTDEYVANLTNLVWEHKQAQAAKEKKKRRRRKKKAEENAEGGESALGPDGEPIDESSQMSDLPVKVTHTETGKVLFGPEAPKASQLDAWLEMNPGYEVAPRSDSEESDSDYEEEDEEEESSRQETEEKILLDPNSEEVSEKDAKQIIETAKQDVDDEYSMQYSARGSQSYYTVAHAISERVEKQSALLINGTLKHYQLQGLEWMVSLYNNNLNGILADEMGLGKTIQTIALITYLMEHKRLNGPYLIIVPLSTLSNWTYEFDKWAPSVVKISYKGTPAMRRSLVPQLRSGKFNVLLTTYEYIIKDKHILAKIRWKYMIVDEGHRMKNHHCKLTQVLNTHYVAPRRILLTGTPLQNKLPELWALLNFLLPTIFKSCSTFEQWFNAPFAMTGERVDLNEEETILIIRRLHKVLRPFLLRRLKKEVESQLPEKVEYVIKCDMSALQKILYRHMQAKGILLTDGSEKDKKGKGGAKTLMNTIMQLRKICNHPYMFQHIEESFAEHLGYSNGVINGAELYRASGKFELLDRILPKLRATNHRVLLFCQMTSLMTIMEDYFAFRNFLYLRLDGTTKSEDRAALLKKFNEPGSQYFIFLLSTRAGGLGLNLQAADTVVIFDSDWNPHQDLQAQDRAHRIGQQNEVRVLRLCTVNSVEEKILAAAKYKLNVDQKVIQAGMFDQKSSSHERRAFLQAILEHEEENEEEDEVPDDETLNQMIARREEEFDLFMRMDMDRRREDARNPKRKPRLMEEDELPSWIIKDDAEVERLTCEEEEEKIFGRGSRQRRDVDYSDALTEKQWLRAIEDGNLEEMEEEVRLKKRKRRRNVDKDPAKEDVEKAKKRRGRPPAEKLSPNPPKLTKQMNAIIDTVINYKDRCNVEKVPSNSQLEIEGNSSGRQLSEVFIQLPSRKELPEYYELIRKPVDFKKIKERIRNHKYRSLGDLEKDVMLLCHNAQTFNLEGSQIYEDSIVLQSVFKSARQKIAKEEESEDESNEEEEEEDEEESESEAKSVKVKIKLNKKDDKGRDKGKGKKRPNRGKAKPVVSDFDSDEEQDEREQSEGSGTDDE

A short description of assay [6]: Counterscreen for activators of the function of SWI/SNF related, matrix associated, actin dependent regulator of chromatin, subfamily a, member 2 (SMARCA2, BRM): Luminescence-based cell-based high throughput dose response assay to identify non-selective compounds using the VP16 reporter assay. In kind it is functional.
For the next assay, the system named is Vero. The assay is described as follows: viability loss in Vero cells – cell-based, plate reader, cherry-pick samples, cytotoxicity control, dose response (AID 687020). In kind it is functional. The settings on record: Chlorocebus sabaeus.
Assay [7] has as its target T1, Methionyl-tRNA synthetase, putative (Trypanosoma brucei brucei, UniProt Q38C91).
T1 sequence (Q38C91 whole entry): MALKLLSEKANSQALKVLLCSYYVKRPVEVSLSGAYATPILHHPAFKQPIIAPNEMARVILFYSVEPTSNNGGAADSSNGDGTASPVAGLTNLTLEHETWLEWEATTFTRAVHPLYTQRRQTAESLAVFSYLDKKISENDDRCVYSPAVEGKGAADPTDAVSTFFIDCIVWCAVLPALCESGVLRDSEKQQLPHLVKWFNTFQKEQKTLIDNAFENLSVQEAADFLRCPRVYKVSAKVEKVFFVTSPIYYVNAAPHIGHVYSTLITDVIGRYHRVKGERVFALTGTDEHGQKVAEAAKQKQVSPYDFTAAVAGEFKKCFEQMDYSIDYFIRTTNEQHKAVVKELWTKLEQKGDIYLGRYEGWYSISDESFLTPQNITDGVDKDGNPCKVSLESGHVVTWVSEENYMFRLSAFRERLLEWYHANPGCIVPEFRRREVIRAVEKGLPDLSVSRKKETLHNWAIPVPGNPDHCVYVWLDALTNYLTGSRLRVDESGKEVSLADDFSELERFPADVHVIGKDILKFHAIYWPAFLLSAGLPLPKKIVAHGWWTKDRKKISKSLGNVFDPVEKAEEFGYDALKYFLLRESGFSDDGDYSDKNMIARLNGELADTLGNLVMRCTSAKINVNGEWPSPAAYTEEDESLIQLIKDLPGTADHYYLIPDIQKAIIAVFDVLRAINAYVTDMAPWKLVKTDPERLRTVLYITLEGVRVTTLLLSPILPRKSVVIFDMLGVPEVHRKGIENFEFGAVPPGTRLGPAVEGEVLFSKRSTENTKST
Format: functional, Trypanosoma brucei brucei strain 927/4 GUTat10.1.

Assay [8] in a line: Counterscreen for inhibitors of Trypanosoma brucei methionyl tRNA synthetase (MetRS): Luminescence-based cell-based high throughput dose response assay to identify compounds that are cytotoxic to Jurkat human T lymphocyte cells. Format: functional.
The target of assay [9] is T1, Methionyl-tRNA synthetase, putative. In kind it is functional, Trypanosoma brucei brucei strain 927/4 GUTat10.1. The source holds these as a separate data set.
The nature of assay [10]: NIH-3T3 fibroblast cytotoxicity, dose response, cytotoxicity control, cell-based, fluorescence, Alamar Blue, secondary assay (AID 2327).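 Further: NIH-3T3 mouse fibroblasts cultured with fluconazole at 8 µg/mL.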 Format: functional. For orientation: Resazurin is reduced to fluorescent resorufin, in cell work by metabolically active cells.
Assay [11] deals with Streptococcus sp. 'group A'. As to the kind of experiment: Streptococcus pyogenes SK(-)GAS viability under kanamycin – luminescence, BacTiterGlo, confirmation, counter-screen for streptokinase expression inhibitor project, dose response (AID 1900). In kind it is functional, organism-based.
A short description of assay [12]: fluconazole-exposed Candida albicans growth modulators – fluorescence, retest, confirmation (AID 2467). Format: functional, cell-based.
The next assay relates to Streptococcus. The assay is described as follows: GAS UMAA2166 growth inhibition – luminescence, BacTiterGlo, counter-screen for streptokinase expression inhibitor project, dose response (AID 1915).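 Further: potency for reduction of bacterial viability or growth.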 In kind it is functional, organism-based.
Assay [13] is described as follows: blockers of HIV-1 ZM109 envelope-driven cell-cell fusion – HeLa effector, CEM target cells, luciferase, cherry-pick, dose response (AID 652058).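 Further: luciferase signal from HIV-1 Env mediated cell-cell fusion of effector and target cells.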 Format: functional, cell-based.
The nature of assay [14]: HIV-1 AD8 envelope cell-cell fusion blockers – cherry-pick, dose response (AID 652062).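 Further: luciferase signal from cell-cell fusion driven by HIV-1 clade B AD8 Env; potency is for inhibitors of fusion seen as a drop in luminescence.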 Format: functional, cell-based.
Assay [15] has as its target T2, Heat shock factor protein 1 (Mus musculus, UniProt P38532).
T2 sequence (P38532 whole entry): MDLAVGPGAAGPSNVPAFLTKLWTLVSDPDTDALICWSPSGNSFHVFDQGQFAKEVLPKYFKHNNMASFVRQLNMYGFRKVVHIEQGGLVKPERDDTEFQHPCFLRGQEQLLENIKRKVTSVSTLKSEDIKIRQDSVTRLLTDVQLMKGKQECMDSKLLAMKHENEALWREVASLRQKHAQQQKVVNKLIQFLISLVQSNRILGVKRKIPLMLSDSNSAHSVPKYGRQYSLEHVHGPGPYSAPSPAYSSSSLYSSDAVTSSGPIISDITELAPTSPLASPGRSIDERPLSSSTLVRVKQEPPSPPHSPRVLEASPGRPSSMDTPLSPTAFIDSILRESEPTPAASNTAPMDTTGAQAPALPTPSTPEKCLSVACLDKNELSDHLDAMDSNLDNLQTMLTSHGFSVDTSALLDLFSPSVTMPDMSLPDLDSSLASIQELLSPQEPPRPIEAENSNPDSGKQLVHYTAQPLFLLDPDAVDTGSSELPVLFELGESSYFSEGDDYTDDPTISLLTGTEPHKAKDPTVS
The assay is described as follows: decrease of HSF1-responsive luciferase luminescence – cell-based, NIH3T3, dose retest, confirmation (AID 2382).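 Further: NIH3T3 fibroblasts with HSF1-driven luciferase reporter stressed by proteasome inhibitor MG132; luminescence from HSF1-driven luciferase expression after 8 hours of MG132 stress.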 In kind it is functional.

The subject of a further assay is INS1. As to the kind of experiment: INS-1E survival protection against cytokine death – cell-based, luminescence, retest, dose response (AID 449756).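 Further: cell death triggered by IL-1 beta plus TNF-alpha plus IFN-gamma mixture; protective hits raise ATP signal compared with cytokine alone wells.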 The settings on record: Rattus norvegicus. In kind it is functional.
Assay [16] concerns the target T3, DNA repair and recombination protein RAD54-like (Homo sapiens, UniProt Q92698).
T3 sequence (Q92698 whole entry): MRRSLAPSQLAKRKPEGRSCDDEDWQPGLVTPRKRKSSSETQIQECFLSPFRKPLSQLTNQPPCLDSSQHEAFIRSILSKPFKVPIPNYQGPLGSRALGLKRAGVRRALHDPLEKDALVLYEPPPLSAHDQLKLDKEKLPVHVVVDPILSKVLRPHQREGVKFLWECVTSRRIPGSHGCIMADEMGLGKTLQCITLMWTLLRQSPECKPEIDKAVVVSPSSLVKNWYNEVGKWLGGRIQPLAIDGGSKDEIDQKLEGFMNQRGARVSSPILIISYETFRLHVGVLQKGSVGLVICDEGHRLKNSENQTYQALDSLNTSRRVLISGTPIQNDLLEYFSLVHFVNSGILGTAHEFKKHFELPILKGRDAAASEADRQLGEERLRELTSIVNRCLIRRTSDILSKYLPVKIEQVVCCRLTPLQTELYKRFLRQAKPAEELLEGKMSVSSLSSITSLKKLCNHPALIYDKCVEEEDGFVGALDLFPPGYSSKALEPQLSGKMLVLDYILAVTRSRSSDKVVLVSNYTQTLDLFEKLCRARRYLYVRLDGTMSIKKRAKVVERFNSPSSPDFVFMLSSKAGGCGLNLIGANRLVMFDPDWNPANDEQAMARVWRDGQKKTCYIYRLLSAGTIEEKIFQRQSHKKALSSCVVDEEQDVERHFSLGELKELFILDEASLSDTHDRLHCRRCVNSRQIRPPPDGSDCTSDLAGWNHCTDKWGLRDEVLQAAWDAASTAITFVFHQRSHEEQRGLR
As to the kind of experiment: RAD54 Holliday junction migration blockers – biochemical, fluorescence, cherry-picked samples, dose series, confirmation (AID 651657). Format: functional.

In assay [17] the target is T4, Histone-lysine N-methyltransferase NSD2 (Homo sapiens, UniProt O96028).
T4 sequence (O96028 whole entry): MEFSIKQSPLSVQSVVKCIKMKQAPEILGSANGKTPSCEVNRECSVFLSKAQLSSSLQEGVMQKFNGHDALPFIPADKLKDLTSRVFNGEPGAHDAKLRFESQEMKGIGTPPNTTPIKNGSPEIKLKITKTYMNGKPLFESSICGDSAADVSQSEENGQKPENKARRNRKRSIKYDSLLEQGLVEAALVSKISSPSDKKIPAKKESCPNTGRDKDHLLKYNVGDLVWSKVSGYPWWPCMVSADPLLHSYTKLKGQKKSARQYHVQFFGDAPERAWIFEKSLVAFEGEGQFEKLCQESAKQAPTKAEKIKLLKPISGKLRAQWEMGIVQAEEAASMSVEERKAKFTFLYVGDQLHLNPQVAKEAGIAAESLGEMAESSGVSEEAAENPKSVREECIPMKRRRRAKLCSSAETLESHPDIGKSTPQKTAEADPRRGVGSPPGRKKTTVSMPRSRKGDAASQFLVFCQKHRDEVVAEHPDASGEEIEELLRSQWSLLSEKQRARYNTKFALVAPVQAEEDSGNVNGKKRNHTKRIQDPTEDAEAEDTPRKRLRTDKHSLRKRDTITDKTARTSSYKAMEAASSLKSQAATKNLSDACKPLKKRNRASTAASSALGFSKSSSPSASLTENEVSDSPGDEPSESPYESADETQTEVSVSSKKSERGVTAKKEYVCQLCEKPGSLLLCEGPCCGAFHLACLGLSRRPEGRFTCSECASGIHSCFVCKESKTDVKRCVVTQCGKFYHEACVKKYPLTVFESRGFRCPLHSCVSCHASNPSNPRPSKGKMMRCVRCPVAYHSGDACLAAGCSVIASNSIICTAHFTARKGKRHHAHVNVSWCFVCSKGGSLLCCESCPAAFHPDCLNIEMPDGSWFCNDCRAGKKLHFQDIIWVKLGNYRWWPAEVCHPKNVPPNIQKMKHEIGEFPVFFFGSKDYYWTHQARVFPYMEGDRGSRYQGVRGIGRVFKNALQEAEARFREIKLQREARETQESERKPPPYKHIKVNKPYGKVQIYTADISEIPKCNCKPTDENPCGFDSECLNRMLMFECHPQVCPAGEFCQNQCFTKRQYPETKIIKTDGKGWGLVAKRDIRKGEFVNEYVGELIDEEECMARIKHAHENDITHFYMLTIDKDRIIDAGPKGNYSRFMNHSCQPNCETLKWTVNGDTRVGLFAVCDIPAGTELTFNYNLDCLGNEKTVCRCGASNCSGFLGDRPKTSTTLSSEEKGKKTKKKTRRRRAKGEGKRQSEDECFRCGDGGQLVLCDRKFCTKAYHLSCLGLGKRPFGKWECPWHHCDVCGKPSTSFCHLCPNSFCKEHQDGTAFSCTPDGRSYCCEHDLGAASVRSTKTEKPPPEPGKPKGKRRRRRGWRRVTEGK
In kind it is biochemical.

The nature of the next assay: cells. In kind it is functional.

Our source for the AC50, IC50 and EC50 values is ChEMBL document CHEMBL1201862, “PubChem BioAssay data set” (2004).

Activity calls are given as the source filed them. Where only a bound is given, the exact number is not on record here.

Consider `Cc1cccc(C)c1N(CC(O)Cn1c2ccccc2c2ccccc21)S(C)(=O)=O` (stereo not given), for which the AC50 (as a rule, the concentration giving half of the maximal activity seen) is 17.1 µM (active) in assay [1], 60.4 µM (active) in assay [2] and > 70 µM (inactive) in [3].
`COc1ccc2c(CC(=O)Nc3ncc(C)s3)coc2c1`: the IC50 (usually the concentration at which inhibition is half-maximal) in assay [4] was 1.11 µM (active). Further, the EC50 in assay [5] and in assay [6] was > 91.2 µM (inactive) in each case.
On to `NC(=O)c1cc(Cl)cn(-c2ccccc2)c1=O`, for which, in the assay on Vero, the AC50 is 33.7 µM (active).
`O=C(COC(=O)CCCOc1ccc(Cl)cc1Cl)Nc1cccc(Cl)c1`: the IC50 in [7] was 9.07 µM (active); in assay [8] it was 83.3 µM (inactive); in assay [9], 16.5 µM (inactive).
The corresponding values for `O=C(Nc1ccccc1)Nc1nnc(COc2ccccc2F)s1` are 42.9 µM (inactive), 71 µM (inactive) and 35.7 µM (inactive).
Take `COc1ccc(C(C(=O)NC2CCCC2)N2CCc3ccccc32)cc1` (stereo not given): the AC50 in the assay with Vero was 29.5 µM (active).
In the case of `CC1CCCCN1S(=O)(=O)c1ccc(C(=O)Nc2nnc(-c3cccs3)o2)cc1` (stereo not given), the EC50 (usually the concentration needed to bring the measured effect to its halfway point) was > 150 µM (inactive) in assay [10], 2.05 µM (active) in [11], 1.11 µM (active) in assay [12] and 4.49 µM (active) in the assay with Streptococcus. In addition, the half-maximal activity concentration (AC50) in assay [1] is 32.8 µM (active); in assay [2], 35.7 µM (active); in assay [13], 14.6 µM (active); in assay [14], 16.6 µM (active).
Consider `O=C(Oc1c(CN2CCOCC2)cc(Cl)c2cccnc12)c1ccccc1Br`, for which the EC50 in assay [10] is 135 µM (active); in assay [15], 31.3 µM (active); in assay [12], 3.49 µM (active); in [5] it was > 91.1 µM (inactive); in assay [6], > 91.1 µM (inactive). The AC50 in the assay with INS1 is 6.56 µM (active).
Turning to `Nc1ccc(C2(c3ccc(N)cc3)CN3CCC2CC3)cc1`, the concentration at half-maximal activity (AC50) in assay [16] is 25.8 µM (active); in assay [17] it was 4.41 µM (active).
As for `N/N=C(/Cc1nc2ccccc2[nH]1)c1ccc([N+](=O)[O-])cc1`, the IC50 in the assay “cells” was 19 µM (active); in assay [7], 6.69 µM (active); in assay [8], 83.3 µM (inactive); in assay [9], 3.17 µM (active).
With `O=C(O)c1cc(=O)c2c(OCC(O)COc3cccc4oc(C(=O)O)cc(=O)c34)cccc2o1` [CROMOLYN SODIUM], in the assay on Vero, the AC50 was 34.3 µM (active).
